Measured values: US10144817B2, “Active and intelligent additive, polymer and article” (Braskem S.A., priority 2010, dated 2018)

Experiment: Decomposition temperature of sensitive compounds and of the encapsulated additives
Assay type: physicochemical
Conditions: not encapsulated
From the text: The sensitive compounds set forth in Table 1 constitute preferred examples of compounds that may be used in the preparation of the active and intelligent additive according to the present invention. The sensitive compounds release a certain amount of electrons according to the characteristic reaction for each compound.

For `O=C1O[C@H]([C@@H](O)CO)C(O)=C1O` [Ascorbic Acid], the “Decomposition Temperature of the Sensitive Compound” value was 190 °C.
In the case of Citric Acid, the “Decomposition Temperature of the Sensitive Compound” value is reported as 175 °C.
